# Test results taken from ChEMBL document CHEMBL4371004, “A-C Estrogens as Potent and Selective Estrogen Receptor-Beta Agonists (SERBAs) to Enhance Memory Consolidation under Low-Estrogen Conditions” (J Med Chem, 2018).
# Activity calls are given as the source filed them. The calls are words filed in the database; no cut-off is given here.
# Columns and labels:
# [1] = target: T1, Glucocorticoid receptor (Homo sapiens) (UniProt P04150); assay: Agonist activity at GAL4 DNA binding domain fused glucocorticoid receptor ligand binding domain (unknown origin) at 0.25 to 25 uM by FRET-based assay
# T1 sequence (whole entry): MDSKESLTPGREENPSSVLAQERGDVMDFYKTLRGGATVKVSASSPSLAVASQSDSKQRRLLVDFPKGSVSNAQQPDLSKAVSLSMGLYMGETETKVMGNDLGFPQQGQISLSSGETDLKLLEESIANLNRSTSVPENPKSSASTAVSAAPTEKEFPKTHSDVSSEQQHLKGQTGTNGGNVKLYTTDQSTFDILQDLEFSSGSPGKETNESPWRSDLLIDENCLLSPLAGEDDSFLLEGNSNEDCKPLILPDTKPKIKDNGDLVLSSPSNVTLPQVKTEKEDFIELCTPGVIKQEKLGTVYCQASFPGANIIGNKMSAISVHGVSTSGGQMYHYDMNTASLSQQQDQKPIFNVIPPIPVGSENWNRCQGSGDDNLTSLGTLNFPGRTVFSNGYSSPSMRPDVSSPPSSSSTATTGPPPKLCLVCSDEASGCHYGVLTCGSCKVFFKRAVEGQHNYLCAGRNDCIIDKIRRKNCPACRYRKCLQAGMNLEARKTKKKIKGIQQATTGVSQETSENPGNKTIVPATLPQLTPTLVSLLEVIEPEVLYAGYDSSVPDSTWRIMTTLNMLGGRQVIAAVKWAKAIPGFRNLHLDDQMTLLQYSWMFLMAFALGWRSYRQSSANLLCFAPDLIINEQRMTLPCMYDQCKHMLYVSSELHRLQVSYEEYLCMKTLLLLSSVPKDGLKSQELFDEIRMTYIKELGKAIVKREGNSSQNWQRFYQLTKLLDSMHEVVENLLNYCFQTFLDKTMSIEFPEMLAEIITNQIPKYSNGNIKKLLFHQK
# [2] = target: T2, Estrogen receptor (Homo sapiens, UniProt P03372)
# T2 sequence (P03372 whole entry): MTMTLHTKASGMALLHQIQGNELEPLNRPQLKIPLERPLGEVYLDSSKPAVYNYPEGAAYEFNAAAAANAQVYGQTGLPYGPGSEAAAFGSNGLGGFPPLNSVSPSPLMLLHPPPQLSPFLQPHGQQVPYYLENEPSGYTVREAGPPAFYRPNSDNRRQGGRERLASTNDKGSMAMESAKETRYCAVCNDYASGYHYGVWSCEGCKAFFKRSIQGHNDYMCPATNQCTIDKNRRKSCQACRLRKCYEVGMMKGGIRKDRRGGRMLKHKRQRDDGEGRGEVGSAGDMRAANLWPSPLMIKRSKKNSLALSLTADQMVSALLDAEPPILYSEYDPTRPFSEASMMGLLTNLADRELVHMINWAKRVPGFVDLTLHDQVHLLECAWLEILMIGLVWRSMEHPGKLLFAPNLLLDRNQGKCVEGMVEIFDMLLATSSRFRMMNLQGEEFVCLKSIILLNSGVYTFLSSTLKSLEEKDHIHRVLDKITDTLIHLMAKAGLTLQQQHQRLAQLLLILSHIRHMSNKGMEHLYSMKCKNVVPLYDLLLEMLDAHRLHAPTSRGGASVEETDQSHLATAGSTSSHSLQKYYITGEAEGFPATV
# Description: Agonist activity at estrogen receptor alpha (unknown origin) after 22 hrs by cell-based luciferase reporter gene assay
compound,measurement,setting,value
OC[C@H]1CC[C@H](c2ccc(O)cc2)CC1,Activity,[1],inactive
same,EC50,[2],20.4 µM
